The source of these data is ChEMBL document CHEMBL1201862, “PubChem BioAssay data set” (2004).

Among the test systems are UO-31; U-251; HCT-116; Malme-3M; HCT-15; OVCAR-5; CCRF-CEM; UACC-62; NCI-H23; SNB-19; OVCAR-8; HCC 2998; COLO 205; HOP-62; K562.
Holding throughout (test): growth of human tumour cells (NCI), 48 h

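Test compounds were applied to cells in 96-well plates for 48 hours at 5 doses. GI50 marks 50% less growth.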 Active and inactive are the calls of the source. No stated cut-off is given here; in the data, active = GI50 up to about 1.1 µM and inactive = higher. Where only a bound is given, the exact number is not on record here.

With `N#Cc1c(-c2ccccc2)c(-c2ccccc2)cc2c(=O)c3ccc(Cl)cc3[nH]c12`, the GI50 in the test on UO-31 is > 100 µM (inactive); in the test on U-251 it was > 100 µM (inactive); in the test with HCT-116 it was > 100 µM (inactive); in the test with Malme-3M it was > 100 µM (inactive); with HCT-15, > 100 µM; in the test with OVCAR-5 it was > 100 µM (inactive). Besides, the GI50 in the test on CCRF-CEM, with UACC-62, in the test on NCI-H23, in the test on SNB-19, in the test with OVCAR-8 and with HCC 2998 was > 100 µM (inactive) throughout. In addition, the GI50 with COLO 205 and with HOP-62 was > 100 µM (inactive) each time.

For the compound `O=C1[C@@H]2C3c4ccccc4C([C@@H]2C(=O)N1c1ccccc1)S3(=O)=O`, the GI50 with UO-31 was > 100 µM (inactive); in the test on U-251 it was 47.2 µM (inactive); in the test on HCT-116, > 100 µM (inactive); in the test with Malme-3M, > 100 µM (inactive); with HCT-15, > 100 µM; in the test on OVCAR-5 it was > 100 µM (inactive). Also, the GI50 is 32.1 µM (inactive) with CCRF-CEM; > 100 µM (inactive) in the test with UACC-62; > 100 µM (inactive) with NCI-H23; 48.8 µM (inactive) in the test on SNB-19; > 100 µM (inactive) in the test on OVCAR-8; > 100 µM (inactive) in the test with HCC 2998. The figures for the GI50 in the test on K562 and in the test with COLO 205 were 61.4 µM (inactive) and > 100 µM (inactive), respectively.

In the case of `O=C(N/C(=C\c1ccc(Cl)cc1)c1nc2ccccc2[nH]1)c1ccccc1`, the GI50 in the test with UO-31 is 18.8 µM (inactive); in the test on U-251 it was 22.2 µM (inactive); in the test with HCT-116, 13.7 µM (inactive); in the test on Malme-3M it was 34 µM (inactive); in the test on HCT-15 it was 26.4 µM; in the test on OVCAR-5, 37.2 µM (inactive). Moreover, the GI50 in the test with CCRF-CEM was 20 µM (inactive); in the test on UACC-62, 16 µM (inactive); with NCI-H23 it was 18.3 µM (inactive); in the test with SNB-19, 27.2 µM (inactive); in the test with OVCAR-8 it was 24.5 µM (inactive); in the test on K562 it was 15.1 µM (inactive). The GI50 in the test with COLO 205 is 17.7 µM (inactive).

Regarding `COc1ccc2[nH]cc(CCNC(=O)[C@](O)(Cc3cn(C)c4ccccc34)[C@@]3(O)OCC(O)C3O)c2c1` (some centres not stated), the GI50 with U-251 was > 100 µM (inactive); in the test on HCT-116, 47.3 µM (inactive); in the test with Malme-3M it was > 100 µM (inactive); in the test with HCT-15, > 100 µM; in the test with OVCAR-5, > 100 µM (inactive); in the test on CCRF-CEM, 35.8 µM (inactive). Besides, the GI50 in the test with UACC-62 is 58.9 µM (inactive); with NCI-H23, > 100 µM (inactive); with SNB-19, > 100 µM (inactive); in the test with OVCAR-8, > 100 µM (inactive); in the test on HCC 2998, > 100 µM (inactive); with K562, 74 µM (inactive). Moreover, the GI50 in the test with COLO 205 and in the test with HOP-62 was > 100 µM (inactive) throughout.

In the case of `CCOC(=O)NC/C=C/COC1CCCCO1` (configuration not stated), the GI50 is > 100 µM (inactive) in the test with UO-31; > 100 µM (inactive) in the test on U-251; > 100 µM (inactive) in the test with HCT-116; > 100 µM (inactive) in the test with Malme-3M; > 100 µM in the test on HCT-15; > 100 µM (inactive) in the test with CCRF-CEM. Moreover, the GI50 in the test on UACC-62, with SNB-19, in the test with OVCAR-8, with HCC 2998, in the test on K562 and in the test on COLO 205 was > 100 µM (inactive) in each case. In addition, the GI50 in the test with HOP-62 is > 100 µM (inactive).

As to `CC1=CCC23C(C1)OC(Br)(C=CC2(C)O)C3(C)C` (configuration not stated), the GI50 in the test with HCT-116, in the test on Malme-3M, with OVCAR-5, in the test with CCRF-CEM, in the test with UACC-62 and in the test on NCI-H23 was > 100 µM (inactive) each time. For the same compound, the GI50 with OVCAR-8, in the test with HCC 2998, with K562 and in the test with COLO 205 was > 100 µM (inactive) throughout.

As for `Nc1ccc2nc(Nc3ccc(F)cc3)cnc2c1`, the GI50 in the test with UO-31 was 47.2 µM (inactive); with HCT-116 it was > 100 µM (inactive); in the test with Malme-3M, > 100 µM (inactive); in the test with HCT-15, > 100 µM; in the test on OVCAR-5 it was > 100 µM (inactive); with CCRF-CEM, 30.5 µM (inactive). Besides, the GI50 in the test with SNB-19 was > 100 µM (inactive); in the test on OVCAR-8, > 100 µM (inactive); in the test with HCC 2998, > 100 µM (inactive); with K562, 81.5 µM (inactive); with COLO 205, > 100 µM (inactive); in the test with HOP-62, > 100 µM (inactive).

Regarding `CCN1C2=NC(=O)N(C)C(=O)C2(Cl)C(C(SC)S(=O)(=O)c2ccc(C)cc2)c2ccccc21` (configuration not stated), the GI50 is 19.9 µM (inactive) in the test with UO-31; 79.8 µM (inactive) in the test with U-251; 20.1 µM (inactive) in the test with HCT-116; 47.3 µM (inactive) in the test on Malme-3M; > 100 µM (inactive) with OVCAR-5; 5.62 µM (inactive) in the test on CCRF-CEM. Also, the GI50 with UACC-62 was 44.7 µM (inactive); in the test on NCI-H23 it was 20 µM (inactive); with SNB-19, 51.9 µM (inactive); in the test on OVCAR-8 it was 21.2 µM (inactive); in the test with HCC 2998, > 100 µM (inactive); in the test on K562 it was 20.7 µM (inactive). The results for the GI50 in the test with COLO 205 and with HOP-62 were 31.6 µM (inactive) and > 100 µM (inactive), respectively.

For `COC(=O)c1cc2c(=O)n(C)c3ccccc3n2c1C(=O)OC`, the GI50 was 63.1 µM (inactive) with UO-31; 24.1 µM (inactive) in the test on U-251; > 100 µM (inactive) in the test on Malme-3M; 80.2 µM in the test on HCT-15; > 100 µM (inactive) with OVCAR-5; > 100 µM (inactive) with CCRF-CEM. Moreover, the GI50 in the test on UACC-62 is > 100 µM (inactive); in the test on NCI-H23, 40.7 µM (inactive); in the test on SNB-19, 34.7 µM (inactive); with OVCAR-8, 35.8 µM (inactive); with HCC 2998, 33.5 µM (inactive); in the test with K562, > 100 µM (inactive). Moreover, the figures for the GI50 in the test with COLO 205 and in the test with HOP-62 were > 100 µM (inactive) and 16.9 µM (inactive), respectively.

For the compound `C=CCC12CCC(=O)[C@@]1(C)CC=C(O)C2=O` (some centres not stated), the GI50 in the test with UO-31 was > 100 µM (inactive); in the test on U-251, > 100 µM (inactive); in the test on HCT-116, > 100 µM (inactive); in the test with Malme-3M, > 100 µM (inactive); in the test with HCT-15 it was > 100 µM; in the test with OVCAR-5 it was > 100 µM (inactive). The GI50 in the test with CCRF-CEM, in the test with UACC-62, in the test on SNB-19, in the test with OVCAR-8, with HCC 2998 and in the test on COLO 205 was > 100 µM (inactive) each time. For the same compound, the GI50 with HOP-62 is > 100 µM (inactive).

Take `N#Cc1ccc(Cc2ccccn2)cc1Cl`: the GI50 in the test with UO-31, in the test with U-251, in the test with Malme-3M, with OVCAR-5, in the test with CCRF-CEM and with UACC-62 was > 100 µM (inactive) in each case. Moreover, the GI50 in the test with NCI-H23, with SNB-19, in the test with OVCAR-8, with K562, with COLO 205 and with HOP-62 was > 100 µM (inactive) in each case.

Turning to `Cc1cc([N+](=O)[O-])c(C)c2c1[nH]c1ccc(O)cc12`, the GI50 with UO-31 is > 100 µM (inactive); in the test on HCT-116, > 100 µM (inactive); in the test with Malme-3M, > 100 µM (inactive); in the test with HCT-15 it was 50 µM; in the test with OVCAR-5, > 100 µM (inactive); in the test with CCRF-CEM, 23.4 µM (inactive). Further, the GI50 with NCI-H23 was > 100 µM (inactive); with SNB-19, > 100 µM (inactive); in the test on OVCAR-8, > 100 µM (inactive); in the test on HCC 2998, > 100 µM (inactive); with K562 it was 45.8 µM (inactive); with COLO 205, 64.6 µM (inactive). Also, the GI50 with HOP-62 was > 100 µM (inactive).

For the compound `COc1ccc2c(c1)O[C@@H]1c3ccc(OC)cc3OC[C@H]21`, the GI50 with UO-31 was 30.1 µM (inactive); with U-251, 24.2 µM (inactive); with HCT-116 it was 27.7 µM (inactive); with Malme-3M it was 39.2 µM (inactive); in the test with HCT-15, 25.8 µM; in the test on OVCAR-5 it was 45.3 µM (inactive). Further, the GI50 in the test on CCRF-CEM was 27.2 µM (inactive); in the test on UACC-62, 37.8 µM (inactive); in the test on NCI-H23, 23.2 µM (inactive); in the test with SNB-19, 54.3 µM (inactive); in the test on OVCAR-8, 42.1 µM (inactive); with HCC 2998 it was 35.2 µM (inactive). For the same compound, the GI50 with K562 is 6.11 µM (inactive); in the test on HOP-62, 72.8 µM (inactive).

In the case of `COc1ccc(/C=C2\C(=O)Nc3ccccc32)cc1OC`, the GI50 was 86.3 µM (inactive) with UO-31; 28.9 µM (inactive) in the test on U-251; > 100 µM (inactive) in the test on HCT-116; > 100 µM (inactive) with Malme-3M; 53 µM with HCT-15; > 100 µM (inactive) in the test on OVCAR-5. Also, the GI50 is > 100 µM (inactive) with CCRF-CEM; > 100 µM (inactive) with UACC-62; > 100 µM (inactive) in the test with NCI-H23; 38.5 µM (inactive) with SNB-19; > 100 µM (inactive) in the test on OVCAR-8; 44.7 µM (inactive) with K562. The GI50 with COLO 205 and in the test on HOP-62 was > 100 µM (inactive) each time.

With `O=C1[C@@H]2C(c3ccccc3Br)=NO[C@@H]2C(=O)N1c1ccc(Cc2ccc(N3C(=O)[C@H]4C(c5ccccc5Br)=NO[C@H]4C3=O)cc2)cc1`, the GI50 was 54.8 µM (inactive) in the test on UO-31; > 100 µM (inactive) in the test with U-251; > 100 µM (inactive) in the test with Malme-3M; > 100 µM with HCT-15; > 100 µM (inactive) in the test on OVCAR-5; > 100 µM (inactive) in the test with CCRF-CEM. The GI50 in the test on UACC-62, with NCI-H23, in the test with OVCAR-8, with HCC 2998, in the test with K562 and in the test on COLO 205 was > 100 µM (inactive) each time. In addition, in the test with HOP-62, the GI50 was > 100 µM (inactive).
